Entries after “also recorded” stand apart in the source; their conditions may differ.
Assays:
αVβ3 integrin = molecular target: T1, αVβ3 integrin (Homo sapiens, UniProt P05106+P06756); test: Cell surface labeling and GST pull-down with immunoblotting; assay type: binding; details: biotin-labeled Ch-1 membrane proteins, Western blot
T1 construct: Ch-1 membrane proteins were labeled with biotin, and PIIBNP was used to isolate the integrin molecules; endogenous in cells; host or cells: Ch-1 human chondrosarcoma cells (surface-biotinylated, lysed)
T1 sequence (P06756 31-889 limits assumed): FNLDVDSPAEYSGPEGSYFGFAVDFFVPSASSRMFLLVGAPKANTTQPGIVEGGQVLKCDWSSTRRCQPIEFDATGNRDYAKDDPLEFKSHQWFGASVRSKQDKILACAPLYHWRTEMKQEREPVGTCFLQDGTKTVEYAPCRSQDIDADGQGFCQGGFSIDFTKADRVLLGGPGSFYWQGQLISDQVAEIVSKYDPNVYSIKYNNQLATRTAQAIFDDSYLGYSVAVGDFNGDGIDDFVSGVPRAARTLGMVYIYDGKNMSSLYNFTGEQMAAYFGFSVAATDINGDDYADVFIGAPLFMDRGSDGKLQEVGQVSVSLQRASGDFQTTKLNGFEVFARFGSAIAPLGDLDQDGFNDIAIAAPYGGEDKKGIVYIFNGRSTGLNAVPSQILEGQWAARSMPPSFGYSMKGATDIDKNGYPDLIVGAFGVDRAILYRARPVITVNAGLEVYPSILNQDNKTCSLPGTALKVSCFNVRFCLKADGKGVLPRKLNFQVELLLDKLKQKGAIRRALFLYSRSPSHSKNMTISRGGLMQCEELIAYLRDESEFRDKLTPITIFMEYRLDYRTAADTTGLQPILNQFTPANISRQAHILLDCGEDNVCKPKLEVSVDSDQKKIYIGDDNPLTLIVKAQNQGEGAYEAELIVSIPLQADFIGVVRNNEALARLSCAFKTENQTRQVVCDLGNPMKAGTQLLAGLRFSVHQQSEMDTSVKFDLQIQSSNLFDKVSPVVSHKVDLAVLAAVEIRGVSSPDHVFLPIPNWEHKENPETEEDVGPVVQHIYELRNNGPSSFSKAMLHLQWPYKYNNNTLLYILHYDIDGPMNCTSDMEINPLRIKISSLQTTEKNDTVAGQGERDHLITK
T1 sequence (P06756 891-1048 limits assumed): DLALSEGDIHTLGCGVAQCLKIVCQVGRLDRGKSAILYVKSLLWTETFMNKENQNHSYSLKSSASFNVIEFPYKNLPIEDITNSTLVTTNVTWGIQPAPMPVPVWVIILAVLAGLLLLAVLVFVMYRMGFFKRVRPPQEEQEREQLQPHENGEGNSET
T1 sequence (P05106 27-788): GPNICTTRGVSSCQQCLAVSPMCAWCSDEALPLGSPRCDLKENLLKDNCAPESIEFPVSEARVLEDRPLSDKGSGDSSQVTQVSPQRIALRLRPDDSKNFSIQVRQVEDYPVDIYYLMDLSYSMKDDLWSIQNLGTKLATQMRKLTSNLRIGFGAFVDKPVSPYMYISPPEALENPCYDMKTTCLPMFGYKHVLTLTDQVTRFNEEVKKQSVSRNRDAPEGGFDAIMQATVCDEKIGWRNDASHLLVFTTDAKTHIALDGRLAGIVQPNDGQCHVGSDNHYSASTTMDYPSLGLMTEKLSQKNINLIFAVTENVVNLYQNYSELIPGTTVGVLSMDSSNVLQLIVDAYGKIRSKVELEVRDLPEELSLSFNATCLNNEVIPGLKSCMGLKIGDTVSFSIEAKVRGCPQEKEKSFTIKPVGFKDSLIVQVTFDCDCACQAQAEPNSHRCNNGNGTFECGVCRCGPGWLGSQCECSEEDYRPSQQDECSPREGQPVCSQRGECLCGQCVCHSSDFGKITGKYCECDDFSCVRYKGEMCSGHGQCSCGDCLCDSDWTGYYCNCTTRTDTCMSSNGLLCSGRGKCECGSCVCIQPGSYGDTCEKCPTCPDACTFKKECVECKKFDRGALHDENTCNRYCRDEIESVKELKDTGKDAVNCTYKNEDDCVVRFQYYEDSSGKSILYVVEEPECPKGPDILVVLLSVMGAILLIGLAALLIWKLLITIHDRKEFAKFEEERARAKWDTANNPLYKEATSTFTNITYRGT
Protocol: (§1) Immunoblotting. Western blotting was performed as described (7). Blots were probed with the following primary antibodies: rabbit anti αV, α2, α3, α5, β1, β3, β5 integrin and goat anti actin (Saint Cruz), chicken anti PIIBNP antiserum, and mouse anti exon 2 antiserum.
(§2) Cell Surface labeling and GST Pull-down Assay. Ch-1 cells were incubated with EZ-link Sulfo-NHS-Biotin reagent for 30 mins. according to the product instruction (Sigma). After 3 washes with 0.1 M glycine in PBS, the cells were lysed with a lysis buffer described above. The lysate was incubated with glutathione derivatized agarose beads previously bound with GST, PIIANP, PIIBNP or mPIIBNP for 1 hr. at RT. […] The membrane was washed and incubated with antibodies and then incubated with a secondary antibody coupled to horseradish peroxidase. The antibody complex was visualized by enhanced chemiluminescence.

αVβ5 integrin = molecular target: T2, αVβ5 integrin (Homo sapiens, UniProt P06756+P18084); test: as above; assay type: binding; details: biotin-labeled Ch-1 membrane proteins, Western blot
T2 construct: Ch-1 membrane proteins were labeled with biotin, and PIIBNP was used to isolate the integrin molecules; endogenous in cells; host or cells: Ch-1 human chondrosarcoma cells (surface-biotinylated, lysed)
T2 sequence (P06756 31-889 limits assumed): as the sequence (P06756 31-889 limits assumed) above
T2 sequence (P06756 891-1048 limits assumed): as the sequence (P06756 891-1048 limits assumed) above
T2 sequence (P18084 24-799): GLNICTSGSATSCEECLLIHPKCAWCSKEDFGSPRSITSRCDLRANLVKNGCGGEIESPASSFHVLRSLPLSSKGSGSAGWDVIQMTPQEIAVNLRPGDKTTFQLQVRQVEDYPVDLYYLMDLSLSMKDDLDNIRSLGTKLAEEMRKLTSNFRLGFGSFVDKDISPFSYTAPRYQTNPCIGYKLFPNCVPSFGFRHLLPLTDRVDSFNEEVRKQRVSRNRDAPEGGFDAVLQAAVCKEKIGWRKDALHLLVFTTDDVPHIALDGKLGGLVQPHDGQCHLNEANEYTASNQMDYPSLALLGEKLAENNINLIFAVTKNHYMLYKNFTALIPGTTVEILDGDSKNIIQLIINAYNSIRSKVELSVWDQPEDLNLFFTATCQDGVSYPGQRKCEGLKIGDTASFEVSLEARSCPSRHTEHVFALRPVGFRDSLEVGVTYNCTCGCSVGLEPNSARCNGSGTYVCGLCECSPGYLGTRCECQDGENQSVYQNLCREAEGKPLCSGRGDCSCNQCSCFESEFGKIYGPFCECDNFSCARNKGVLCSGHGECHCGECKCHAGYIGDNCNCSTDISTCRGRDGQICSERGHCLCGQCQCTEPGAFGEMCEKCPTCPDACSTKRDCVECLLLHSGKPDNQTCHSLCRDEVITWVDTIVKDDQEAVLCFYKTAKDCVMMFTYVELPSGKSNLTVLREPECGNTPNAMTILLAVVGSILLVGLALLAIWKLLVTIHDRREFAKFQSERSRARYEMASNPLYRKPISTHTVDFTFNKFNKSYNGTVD
Protocol: as §1, §2

MDA-MB231 cells = test: Cell survival assay in MDA-MB231 cells; assay type: cell-based, human
Protocol: Cell Culture. Human Chondrosarcoma cell line (Ch-1) was isolated from a portion of chondrosarcoma tumor. […] HUVEC cells were a gift from Dr. William Frazier (Washington University) and were cultured in M199 Earle's medium with 10 units/ml of penicillin, 5 μg/ml streptomycin and 0.25 μg/ml Fungizone supplemented with 10% FBS, 0.1 mg/ml L-glutamine, 25 mM Hepes, 16 units/ml of heparin (Sigma) and 0.1 mg/ml endothelial cell mitogen (Biochemical Technologies).
Detection of Cell Death. Cells were cultured to confluence in a 24-well plate pre-coated with type I collagen, fibronectin (Sigma), and ECM Matrigel (Becton Dickinson). Proteins in serum-free medium were added to the cells. Cells were monitored by light microscopy and images were digitally photographed using a Q capture Retiga 2000R camera. Quantification of cells remaining in the well was performed by washing with PBS for three times, fixing with 4% paraformaldehyde. The cells per field (×400) were counted for three field per well (3 wells per measurement). The mean number and standard deviation (SD) were calculated.

[1] = system: FGF induced mouse cornea neovascularization; test: In vivo mouse cornea angiogenesis inhibition assay; details: Balb/c mice, osmotic pumps, one week
Protocol: FGF containing PolyHEMA pellets were implanted into the corneas of 6 week old Balb/c mice. The mice received osmotic pumps containing a number of proteins to measure the ability of each protein to inhibit angiogenesis. After one week the mice were sacrificed and angiogenesis was quantified based on the total vessel length seen from fluorescently labeled vessels.
To prepare a FGF Pellet (67 ng/quarter pellet) PBS (1 μl of 1×PBS pH 7.4), sucralfate (Sigma, #S0652)(1 μL of a 100 mg/mL suspension of sucralfate), Human FGF-2 (Peprotech, 100-1 8B)(1 μL of 3.2 mg/mL FGF-2), and poly-hema (poly(2-hydroxyethyl methacrylate), Sigma, P3932)(3 μL of 250 mg/mL poly-hema) were combined. Pellets (0.5 μL) were prepped on parafilm, air dried for 10-20 mins, and divided into quarters. The resulting pellets were sealed with parafilm and stored at −20° C. until needed.
To implant the pellet, a mouse was injected with Ketamine/Xylazine (about 0.1 mg KX/gram mouse, IP injection). […]
After one week the mice are injected with same amount of Ketamine given during the implantation procedure. […] Any remaining tissues will show up when the cornea is mounted and viewed with fluorescence. […] Angiogenesis is measured by total vessel outgrowth based on the fluorescently stained blood vessels using Metamorph software (FIG. 9).

[2] = system: mouse chondrogenic cells (ATDC5); test: Chondrogenic cell viability (trypan blue exclusion); assay type: cell-based; details: 16 hours at 37° C.
Protocol: FIG. 10 depicts a graph showing mouse chondrogenic cells (ATDC5), mouse osteoblast cells, and mouse osteoclast cells treated with recombinant GST, PIIBNP or mPIIBNP proteins for 16 hours at 37° C. The cells were trypsinized and cell viability was assayed using a trypan blue exclusion based cell counting. PPIIBNP induced death in osteoclasts that resorb the bone, but not the osteoblasts that form bone.

PIIBNP: Recombinant human Type IIB procollagen NH2-propeptide (exons 3-8, lacking exon 2), expressed as GST fusion protein
binding to integrin αVβ3 (αVβ3 integrin): only integrins identified; also recorded: binds
binding to integrin αVβ5 (αVβ5 integrin): only integrins identified; also recorded: binds
cell survival (MDA-MB231 cells; MDA cells): 30%
cell death (MDA-MB231 cells; MDA-MB231 cells, FIG. 4L): > 70%
inhibition of angiogenesis (cornea neovascularization) ([1]; FGF pellets): inhibits angiogenesis in vivo; also recorded: suppression of neovascularization
toxicity [1]: no apparent toxicity
induction of ATDC5 cell death [2]: did not lead to the mouse chondrogenic cell (ATDC5) death

From patent US7851436B2, “Inhibition of migration and induction of cell death by the type II collagen amino propeptides” (Washington University, priority 2007, dated 2010)
